As a reminder, the EC50 is the concentration giving half of the maximal effect. A low value points to an effect from little substance.

The test deals with T1, ABCG2 transporter (Homo sapiens, UniProt Q9UNQ0).
T1 construct: ABCG2-overexpressing cell membranes
T1 sequence (Q9UNQ0 1-655): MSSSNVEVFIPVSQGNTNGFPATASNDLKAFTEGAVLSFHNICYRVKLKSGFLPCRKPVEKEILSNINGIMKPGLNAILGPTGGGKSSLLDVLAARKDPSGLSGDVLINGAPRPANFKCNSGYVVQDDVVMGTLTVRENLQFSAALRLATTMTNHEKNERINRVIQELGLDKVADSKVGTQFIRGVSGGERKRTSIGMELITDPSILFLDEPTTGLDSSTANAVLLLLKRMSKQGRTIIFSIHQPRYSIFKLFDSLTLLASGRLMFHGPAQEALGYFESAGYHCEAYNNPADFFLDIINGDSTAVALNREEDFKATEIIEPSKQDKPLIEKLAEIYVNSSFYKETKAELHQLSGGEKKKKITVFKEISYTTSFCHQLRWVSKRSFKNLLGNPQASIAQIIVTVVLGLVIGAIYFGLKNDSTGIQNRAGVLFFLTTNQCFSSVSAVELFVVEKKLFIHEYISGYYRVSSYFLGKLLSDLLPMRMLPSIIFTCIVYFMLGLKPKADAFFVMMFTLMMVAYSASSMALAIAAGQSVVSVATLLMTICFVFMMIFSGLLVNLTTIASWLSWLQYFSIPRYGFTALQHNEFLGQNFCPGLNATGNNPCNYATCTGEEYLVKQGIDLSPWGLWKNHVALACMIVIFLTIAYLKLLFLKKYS
As to the kind of experiment: vanadate-sensitive ATPase stimulation in ABCG2-overexpressing membranes; [3H]-mitoxantrone efflux inhibition in S1-M1-80 cells. The test is classed as biochemical.

Compound `CCCc1ccc(NC(=O)c2ccccc2NC(=O)Nc2cccc([N+](=O)[O-])c2)cc1` [VKNG-2, 2-(3-(3-Nitrophenyl)ureido)-N-(4-propylphenyl)benzamide] gave a concentration for a half-maximal effect (EC50) of 2.3 µM.

The values are drawn from publication PMC7957563, “The Novel benzamide Derivative, VKNG-2, Restores the Efficacy of Chemotherapeutic Drugs in Colon Cancer Cell Lines by Inhibiting the ABCG2 Transporter” (International Journal of Molecular Sciences, 2021).
